How the values were obtained:
Test in all cases: Kinase assay, binding constants (Kd), kinase-tagged T7 phage, qPCR
FGFR4 = FGFR4 (Homo sapiens (Human), UniProt P22455)
Method in brief: (§1)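 Competition binding: kinase-tagged T7 phage lysates mixed with immobilized biotinylated ligand on streptavidin beads plus compound (11-point 3-fold dilution series, 0.9% DMSO final). Bound kinase eluted with free ligand and quantified by qPCR. Kd from Hill equation fit, slope fixed at −1.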

FGFR3 = FGFR3 (Homo sapiens (Human), UniProt P22607)
Chain of FGFR3 (P22607 23-806): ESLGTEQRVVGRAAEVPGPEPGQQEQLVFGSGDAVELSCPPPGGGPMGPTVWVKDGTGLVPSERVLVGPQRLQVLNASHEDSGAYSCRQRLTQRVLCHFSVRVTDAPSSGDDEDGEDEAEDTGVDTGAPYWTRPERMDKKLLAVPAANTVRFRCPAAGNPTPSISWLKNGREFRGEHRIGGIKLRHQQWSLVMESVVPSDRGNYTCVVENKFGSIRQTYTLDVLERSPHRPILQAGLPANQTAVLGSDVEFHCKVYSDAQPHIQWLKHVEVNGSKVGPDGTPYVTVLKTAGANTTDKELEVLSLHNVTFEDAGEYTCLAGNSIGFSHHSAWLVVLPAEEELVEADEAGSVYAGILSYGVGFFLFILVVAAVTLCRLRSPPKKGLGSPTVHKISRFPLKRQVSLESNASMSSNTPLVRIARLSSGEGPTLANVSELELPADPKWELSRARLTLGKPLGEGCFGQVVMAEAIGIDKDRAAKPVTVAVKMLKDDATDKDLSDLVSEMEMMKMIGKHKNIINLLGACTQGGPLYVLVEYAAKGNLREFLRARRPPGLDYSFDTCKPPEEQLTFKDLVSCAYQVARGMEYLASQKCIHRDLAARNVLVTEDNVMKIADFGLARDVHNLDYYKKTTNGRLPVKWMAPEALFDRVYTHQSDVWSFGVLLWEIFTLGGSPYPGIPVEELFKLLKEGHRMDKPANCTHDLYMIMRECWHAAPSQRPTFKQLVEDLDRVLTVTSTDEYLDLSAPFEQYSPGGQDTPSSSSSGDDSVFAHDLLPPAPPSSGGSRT
Method in brief: as §1

FGFR1 = FGFR1 (Homo sapiens (Human), UniProt P11362)
Chain of FGFR1 (P11362 22-822): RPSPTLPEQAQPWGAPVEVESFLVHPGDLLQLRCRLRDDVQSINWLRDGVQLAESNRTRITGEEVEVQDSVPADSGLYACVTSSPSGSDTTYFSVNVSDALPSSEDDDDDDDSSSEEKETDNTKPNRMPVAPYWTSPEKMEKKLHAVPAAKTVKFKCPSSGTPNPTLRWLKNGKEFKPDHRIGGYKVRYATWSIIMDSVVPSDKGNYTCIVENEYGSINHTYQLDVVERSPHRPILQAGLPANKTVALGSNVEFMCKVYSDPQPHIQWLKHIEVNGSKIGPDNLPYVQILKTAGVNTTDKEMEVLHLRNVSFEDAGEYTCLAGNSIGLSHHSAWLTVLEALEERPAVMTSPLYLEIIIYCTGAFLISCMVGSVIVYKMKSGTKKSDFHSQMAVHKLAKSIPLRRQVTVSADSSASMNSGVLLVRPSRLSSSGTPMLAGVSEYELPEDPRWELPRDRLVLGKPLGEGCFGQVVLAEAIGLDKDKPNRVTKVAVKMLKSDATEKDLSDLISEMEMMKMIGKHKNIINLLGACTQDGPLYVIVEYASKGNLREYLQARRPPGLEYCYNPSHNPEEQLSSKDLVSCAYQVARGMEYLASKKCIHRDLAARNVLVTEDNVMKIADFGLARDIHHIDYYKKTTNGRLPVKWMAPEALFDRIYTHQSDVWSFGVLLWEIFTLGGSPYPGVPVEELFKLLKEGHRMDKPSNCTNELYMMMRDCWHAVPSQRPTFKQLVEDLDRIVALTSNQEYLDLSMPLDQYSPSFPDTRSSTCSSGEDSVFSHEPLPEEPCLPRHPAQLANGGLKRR
Method in brief: as §1

FGFR2 = FGFR2 (Homo sapiens (Human), UniProt P21802)
Chain of FGFR2 (P21802 22-821): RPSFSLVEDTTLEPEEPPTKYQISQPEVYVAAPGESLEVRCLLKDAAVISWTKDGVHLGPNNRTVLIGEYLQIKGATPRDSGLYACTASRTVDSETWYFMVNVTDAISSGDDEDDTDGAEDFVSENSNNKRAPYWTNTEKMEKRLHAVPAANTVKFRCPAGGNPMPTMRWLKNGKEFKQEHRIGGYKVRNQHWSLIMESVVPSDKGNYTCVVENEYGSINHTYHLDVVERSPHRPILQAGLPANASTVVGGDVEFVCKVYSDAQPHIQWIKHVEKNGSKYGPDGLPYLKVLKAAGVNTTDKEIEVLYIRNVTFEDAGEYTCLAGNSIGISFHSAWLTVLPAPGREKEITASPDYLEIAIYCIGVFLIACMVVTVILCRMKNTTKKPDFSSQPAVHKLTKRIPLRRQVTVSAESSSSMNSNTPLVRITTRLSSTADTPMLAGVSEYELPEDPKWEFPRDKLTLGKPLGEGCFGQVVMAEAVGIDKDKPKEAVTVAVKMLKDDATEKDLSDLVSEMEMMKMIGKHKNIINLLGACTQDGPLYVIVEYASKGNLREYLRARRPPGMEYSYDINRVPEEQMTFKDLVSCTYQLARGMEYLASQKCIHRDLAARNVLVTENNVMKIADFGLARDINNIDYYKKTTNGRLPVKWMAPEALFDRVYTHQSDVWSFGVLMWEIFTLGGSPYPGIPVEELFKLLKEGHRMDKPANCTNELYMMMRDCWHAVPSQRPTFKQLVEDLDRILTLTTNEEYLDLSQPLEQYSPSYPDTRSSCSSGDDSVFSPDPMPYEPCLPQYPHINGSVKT
Method in brief: as §1

FGFR3 (V555M) = FGFR3 (V555M) (Homo sapiens (Human), UniProt P22607, V555M); details: V555M mutant
Chain of FGFR3 (V555M) (P22607 23-806 V555M): as the sequence (P22607 23-806) above, with V533M counted along it
Method in brief: as §1

Chain of FGFR4 (P22455 22-802): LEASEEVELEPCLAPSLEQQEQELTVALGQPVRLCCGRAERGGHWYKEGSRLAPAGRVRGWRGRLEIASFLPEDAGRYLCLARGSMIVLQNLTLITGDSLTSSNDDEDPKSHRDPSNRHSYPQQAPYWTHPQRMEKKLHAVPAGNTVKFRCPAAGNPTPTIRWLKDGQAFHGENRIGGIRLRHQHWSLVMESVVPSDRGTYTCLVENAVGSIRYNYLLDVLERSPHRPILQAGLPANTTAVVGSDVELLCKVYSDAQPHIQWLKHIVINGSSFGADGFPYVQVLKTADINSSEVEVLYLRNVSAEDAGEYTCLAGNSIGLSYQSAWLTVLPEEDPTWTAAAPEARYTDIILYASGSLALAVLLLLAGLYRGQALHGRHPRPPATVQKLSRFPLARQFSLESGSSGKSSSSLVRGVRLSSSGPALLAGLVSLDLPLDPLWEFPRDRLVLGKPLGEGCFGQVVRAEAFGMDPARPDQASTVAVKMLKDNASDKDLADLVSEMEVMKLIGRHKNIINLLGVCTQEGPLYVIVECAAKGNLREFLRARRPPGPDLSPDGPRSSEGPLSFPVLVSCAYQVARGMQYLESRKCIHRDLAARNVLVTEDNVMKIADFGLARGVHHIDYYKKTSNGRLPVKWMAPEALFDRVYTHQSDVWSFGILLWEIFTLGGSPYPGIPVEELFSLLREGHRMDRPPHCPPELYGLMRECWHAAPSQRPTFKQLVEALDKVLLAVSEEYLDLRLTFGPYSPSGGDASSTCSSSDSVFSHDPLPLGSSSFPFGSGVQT

Kd (FGFR4) [nM] | Kd (FGFR3) [nM] | Kd (FGFR1) [nM] | Kd (FGFR2) [nM] | Kd (FGFR3 (V555M)) [nM] | Compound
20 to 100 | 100 to 300 | > 300 | > 300 | 20 to 100 | C[C@@H](Oc1ccc2[nH]nc(-c3cnc(N4CC[C@@H](O)C4)c(C#N)c3)c2c1)c1c(Cl)cnc(F)c1Cl [Example 284, 5-(5-((R)-1-(3,5-dichloro-2-fluoropyridin-4-yl)ethoxy)-1H-indazol-3-yl)-2-((R)-3-hydroxypyrrolidin-1-yl)nicotinonitrile]
1 to 20 | 100 to 300 | > 300 | > 300 | 20 to 100 | C[C@@H](Oc1ccc2[nH]nc(-c3cnc(N4CCCC4)c(C#N)c3)c2c1)c1c(Cl)cncc1Cl [Example 285, 5-[5-[(1R)-1-(3,5-dichloro-4-pyridyl)ethoxy]-1H-indazol-3-yl]-2-pyrrolidin-1-yl-pyridine-3-carbonitrile]
100 to 300 | > 300 | > 300 | > 300 | > 300 | C[C@@H](Oc1ccc2[nH]nc(-c3cnc(N4CCC4)c(C#N)c3)c2c1)c1c(Cl)cnc(F)c1Cl [Example 286, (R)-2-(azetidin-1-yl)-5-(5-(1-(3,5-dichloro-2-fluoropyridin-4-yl)ethoxy)-1H-indazol-3-yl)nicotinonitrile]
20 to 100 | 100 to 300 | > 300 | > 300 | 100 to 300 | C[C@@H](Oc1ccc2[nH]nc(-c3cnc(N4CC(O)C4)c(C#N)c3)c2c1)c1c(Cl)cnc(F)c1Cl [Example 287, (R)-5-(5-(1-(3,5-dichloro-2-fluoropyridin-4-yl)ethoxy)-1H-indazol-3-yl)-2-(3-hydroxyazetidin-1-yl)nicotinonitrile]
1 to 20 | 20 to 100 | > 300 | > 300 | 20 to 100 | C[C@@H](Oc1ccc2[nH]nc(-c3cnc(N4CC[C@H](O)C4)c(C#N)c3)c2c1)c1c(Cl)cnc(F)c1Cl [Example 288, 5-(5-((R)-1-(3,5-dichloro-2-fluoropyridin-4-yl)ethoxy)-1H-indazol-3-yl)-2-((S)-3-hydroxypyrrolidin-1-yl)nicotinonitrile]
> 300 | > 300 | > 300 | > 300 | > 300 | C[C@H](Oc1ccc2[nH]nc(-c3cnc(N4CC(O)C4)c(C#N)c3)c2c1)c1c(Cl)cnc(F)c1Cl [Example 291, (S)-5-(5-(1-(3,5-dichloro-2-fluoropyridin-4-yl)ethoxy)-1H-indazol-3-yl)-2-(3-hydroxyazetidin-1-yl)nicotinonitrile]
100 to 300 | > 300 | > 300 | > 300 | > 300 | C[C@@H](Oc1ccc2[nH]nc(-c3cnc(N4CCCC4)c(C#N)c3)c2c1)c1c(Cl)cnc(F)c1Cl [Example 292, (R)-5-(5-(1-(3,5-dichloro-2-fluoropyridin-4-yl)ethoxy)-1H-indazol-3-yl)-2-(pyrrolidin-1-yl)nicotinonitrile]
1 to 20 | 1 to 20 | 20 to 100 | 20 to 100 | 1 to 20 | C[C@@H](Oc1ccc2[nH]nc(-c3cnc(N4CCC(O)CC4)c(C#N)c3)c2c1)c1c(Cl)cncc1Cl [Example 298, 5-[5-[(1R)-1-(3,5-dichloro-4-pyridyl)ethoxy]-1H-indazol-3-yl]-2-(4-hydroxy-1-piperidyl)pyridine-3-carbonitrile]

The remaining lines, values behind:

Compound | Kd (FGFR4) [nM] | Kd (FGFR3) [nM] | Kd (FGFR1) [nM] | Kd (FGFR2) [nM] | Kd (FGFR3 (V555M)) [nM]
C[C@@H](Oc1ccc2[nH]nc(-c3cnc(N4CC[C@H](O)C4)c(C#N)c3)c2c1)c1c(Cl)cncc1Cl [Example 293, 5-[5-[(1R)-1-(3,5-dichloro-4-pyridyl)ethoxy]-1H-indazol-3-yl]-2-[(3S)-3-hydroxypyrrolidin-1-yl]pyridine-3-carbonitrile] | 1 to 20 | 1 to 20 | 20 to 100 | 20 to 100 | 1 to 20
C[C@@H](Oc1ccc2[nH]nc(-c3cnc(N4CC[C@@H](C(C)(C)O)C4)c(C#N)c3)c2c1)c1c(Cl)cncc1Cl [Example 294, 5-[5-[(1R)-1-(3,5-dichloro-4-pyridyl)ethoxy]-1H-indazol-3-yl]-2-[(3R)-3-(1-hydroxy-1-methyl-ethyl)pyrrolidin-1-yl]pyridine-3-carbonitrile] | 20 to 100 | 100 to 300 | > 300 | > 300 | 20 to 100
Cc1ncc(Cl)c([C@@H](C)Oc2ccc3[nH]nc(-c4cnc(N5CC(CC(F)(F)F)C5)c(C#N)c4)c3c2)c1Cl [Example 295, 5-[5-[(1R)-1-(3,5-dichloro-2-methyl-4-pyridyl)ethoxy]-1H-indazol-3-yl]-2-[3-(2,2,2-trifluoroethyl)azetidin-1-yl]pyridine-3-carbonitrile] | 20 to 100 | > 300 | > 300 | > 300 | 100 to 300
C[C@@H](Oc1ccc2[nH]nc(-c3cnc(N4CC(CC(F)(F)F)C4)c(C#N)c3)c2c1)c1c(Cl)cncc1Cl [Example 296, 5-[5-[(1R)-1-(3,5-dichloro-4-pyridyl)ethoxy]-1H-indazol-3-yl]-2-[3-(2,2,2-trifluoroethyl)azetidin-1-yl]pyridine-3-carbonitrile] | 20 to 100 | > 300 | > 300 | > 300 | 100 to 300
C[C@@H](Oc1ccc2[nH]nc(-c3cnc(N4CC[C@@H](O)C4)c(C#N)c3)c2c1)c1c(Cl)cncc1Cl [Example 297, 5-[5-[(1R)-1-(3,5-dichloro-4-pyridyl)ethoxy]-1H-indazol-3-yl]-2-[(3R)-3-hydroxypyrrolidin-1-yl]pyridine-3-carbonitrile] | 1 to 20 | 1 to 20 | 20 to 100 | 100 to 300 | 1 to 20
Cc1cnnc(C)c1[C@@H](C)Oc1ccc2[nH]nc(-c3cnc(N4CC5CC(C4)N5)c(C#N)c3)c2c1 [Example 299, 2-(3,6-diazabicyclo[3.1.1]heptan-3-yl)-5-(5-((R)-1-(3,5-dimethylpyridazin-4-yl)ethoxy)-1H-indazol-3-yl)nicotinonitrile] | 1 to 20 | 1 to 20 | 20 to 100 | 20 to 100 | 1 to 20
COc1cc(-c2n[nH]c3ccc(O[C@H](C)c4c(C)cnnc4C)cc23)cnc1N1CC2CC(C1)N2 [Example 300, 3-(5-(5-((R)-1-(3,5-dimethylpyridazin-4-yl)ethoxy)-1H-indazol-3-yl)-3-methoxypyridin-2-yl)-3,6-diazabicyclo[3.1.1]heptane] | 20 to 100 | 20 to 100 | 100 to 300 | 100 to 300 | 20 to 100
Cc1cnnc(C)c1[C@@H](C)Oc1ccc2[nH]nc(-c3cnc(N4CC[C@H](C(C)(C)O)C4)c(C#N)c3)c2c1 [Example 301, 5-(5-((R)-1-(3,5-dimethylpyridazin-4-yl)ethoxy)-1H-indazol-3-yl)-2-((S)-3-(2-hydroxypropan-2-yl)pyrrolidin-1-yl)nicotinonitrile] | 1 to 20 | 20 to 100 | 100 to 300 | 100 to 300 | 1 to 20
C[C@@H](Oc1ccc2[nH]nc(-c3cnc(N4CC(O)C4)c(C#N)c3)c2c1)c1c(Cl)cncc1Cl [Example 302, 5-[5-[(1R)-1-(3,5-dichloro-4-pyridyl)ethoxy]-1H-indazol-3-yl]-2-(3-hydroxyazetidin-1-yl)pyridine-3-carbonitrile] | 1 to 20 | 20 to 100 | 100 to 300 | 100 to 300 | 1 to 20
C[C@@H](Oc1ccc2[nH]nc(-c3cnc(N4CCC(C(C)(C)O)CC4)c(C#N)c3)c2c1)c1c(Cl)cncc1Cl [Example 303, 5-[5-[(1R)-1-(3,5-dichloro-4-pyridyl)ethoxy]-1H-indazol-3-yl]-2-[4-(1-hydroxy-1-methyl-ethyl)-1-piperidyl]pyridine-3-carbonitrile] | 1 to 20 | 1 to 20 | 20 to 100 | 20 to 100 | 1 to 20
COc1cc(-c2n[nH]c3ccc(O[C@H](C)c4c(C)cnnc4C)cc23)cnc1N1CCC1 [Example 304, (R)-3-(6-(azetidin-1-yl)-5-methoxypyridin-3-yl)-5-(1-(3,5-dimethylpyridazin-4-yl)ethoxy)-1H-indazole] | 1 to 20 | 100 to 300 | > 300 | > 300 | 20 to 100
COc1cc(-c2n[nH]c3ccc(O[C@H](C)c4c(C)cnnc4C)cc23)cnc1N1CCCC1 [Example 305, (R)-5-(1-(3,5-dimethylpyridazin-4-yl)ethoxy)-3-(5-methoxy-6-(pyrrolidin-1-yl)pyridin-3-yl)-1H-indazole] | 20 to 100 | > 300 | > 300 | > 300 | 100 to 300
Cc1cnnc(C)c1[C@@H](C)Oc1ccc2[nH]nc(-c3cnc(N4CC[C@H](O)C4)c(C#N)c3)c2c1 [Example 306, 5-(5-((R)-1-(3,5-dimethylpyridazin-4-yl)ethoxy)-1H-indazol-3-yl)-2-((S)-3-hydroxypyrrolidin-1-yl)nicotinonitrile] | 1 to 20 | 20 to 100 | 100 to 300 | 20 to 100 | 1 to 20
Cc1cnnc(C)c1[C@@H](C)Oc1ccc2[nH]nc(-c3cnc(N4CC[C@@H](C(C)(C)O)C4)c(C#N)c3)c2c1 [Example 307, 5-(5-((R)-1-(3,5-dimethylpyridazin-4-yl)ethoxy)-1H-indazol-3-yl)-2-((R)-3-(2-hydroxypropan-2-yl)pyrrolidin-1-yl)nicotinonitrile] | 1 to 20 | 20 to 100 | 100 to 300 | 20 to 100 | 1 to 20

From patent US20240109865A1, “INDAZOLE COMPOUNDS AS KINASE INHIBITORS” (TYRA BIOSCIENCES, INC., priority 2020, published 2024)
